According to patent US5968959A, “Method for the prevention and treatment of stunned myocardium” (Orion Corporation, priority 1998, dated 1999):
“Also recorded” adds a separate entry of the source. Values belong to the molecule of their own block, whether it stands above or below them.

Experiments:
[1] = molecular target: T1, phospholamban inhibition of SR Ca2+-ATPase in cardiac muscle SR vesicles (Cavia porcellus, UniProt A0A286XLC6); test: Calcium uptake assay (fluo-3), cardiac SR vesicles; assay type: biochemical, guinea pig; settings: for activation at 100 µM: compound 100 μM
T1 construct: Their hearts or the psoas muscles were excised; from tissue; host or cells: guinea pig heart (ventricular myocardium), SR vesicles
T1 sequence (A0A286XLC6 1-52): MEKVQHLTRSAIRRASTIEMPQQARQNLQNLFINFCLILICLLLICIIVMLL
Protocol: (§1) Preparation of the SR-vesicles
(§2) Guinea pigs (10-12) were decapited. Their hearts or the psoas muscles were excised, washed in ice-cold 0.9% NaCl and cut into pieces in a buffer containing 20 mM Tris-maleate, 0.3 M sucrose, pH 7.0. Thereafter tissue pieces were homogenized with Polytron and further with Potter (10 strokes). The homogenate was centrifugated at 1000 g for 15 min at 4° C. The supernatant was collected and the pellet was resuspended into 5 ml of the buffer (20 mM Tris-maleate, 0.3 M sucrose, pH 7.0) and recentrifugated at 1000 g for 10 min at 4° C. The obtained supernatant was combined with the earlier collected supernatant and centrifugated once again at 10 000 g for 20 min at 4° C. The final supernatant was filtered into a bottle equipped with a magnetic stirrer. KCl was added to the filtered supernatant to achieve the final concentration of 0.6 M (at 4° C.). The obtained solution was centrifugated at 100 000 g for 60 min at 4° C. The pellet was suspended in 5 ml of the buffer containing 20 mM Tris-maleate, 0.3 M sucrose, pH 7.0 and centrifugated at 100 000 g for 60 min at 4° C. The obtained pellet was suspended in 5 ml of buffer containing 20 mM Tris-maleate, 0.3 M sucrose, 0.1 M KCl, pH 7.0 and stored at -80° C. until use. The protein concentration was also measured in order to standardise the separately prepared vesicle preparations.
(§3) In the calcium uptake assay, the fluorescent indicator, fluo-3 was used to detect the decrease of the extravesicular Ca^2+ -concentration, when the SR Ca^2+ ATPase was transferring Ca^2+ from the extravesicular space into the SR-vesicles.
(§4) The SR-vesicles obtained above (50 μg protein/ml) were pre-incubated with or without the test compound at 37° C. for 5 min in the assay buffer containing 40 mM imidazole, 95 mM KCl, 5 mM NaN3, 5 mM MgCl2, 0.5 mM EGTA, 5 mM potassium oxalate, 2 μM ruthenium red, 5 μM fluo-3, pH 7.0. The free calcium was adjusted to 0.1 μM or to 0.04 μM by CaCl2. The reaction was initiated by adding ATP (5 mM). The final reaction volume was 1.5 ml. The fluorescence of reaction mixture was measured for 3 min by using the excitation and emission wavelengths of 510 nm and 530 nm, respectively.
(§5) The experiments were carried out at 0.1 μM and 0.04 μM free calcium concentrations, respectively.

[2] = molecular target: T2, SR Ca2+-ATPase in fast skeletal muscle SR vesicles (Cavia porcellus, UniProt H0UXI0); test: Calcium uptake assay (fluo-3), fast skeletal muscle (psoas m.) SR vesicles, which lack phospholamban; assay type: biochemical, guinea pig; settings: for activation at 100 µM: compound 100 μM
T2 construct: Their hearts or the psoas muscles were excised; from tissue; host or cells: guinea pig psoas muscle, SR vesicles
T2 sequence (H0UXI0 entry or part of it limits assumed): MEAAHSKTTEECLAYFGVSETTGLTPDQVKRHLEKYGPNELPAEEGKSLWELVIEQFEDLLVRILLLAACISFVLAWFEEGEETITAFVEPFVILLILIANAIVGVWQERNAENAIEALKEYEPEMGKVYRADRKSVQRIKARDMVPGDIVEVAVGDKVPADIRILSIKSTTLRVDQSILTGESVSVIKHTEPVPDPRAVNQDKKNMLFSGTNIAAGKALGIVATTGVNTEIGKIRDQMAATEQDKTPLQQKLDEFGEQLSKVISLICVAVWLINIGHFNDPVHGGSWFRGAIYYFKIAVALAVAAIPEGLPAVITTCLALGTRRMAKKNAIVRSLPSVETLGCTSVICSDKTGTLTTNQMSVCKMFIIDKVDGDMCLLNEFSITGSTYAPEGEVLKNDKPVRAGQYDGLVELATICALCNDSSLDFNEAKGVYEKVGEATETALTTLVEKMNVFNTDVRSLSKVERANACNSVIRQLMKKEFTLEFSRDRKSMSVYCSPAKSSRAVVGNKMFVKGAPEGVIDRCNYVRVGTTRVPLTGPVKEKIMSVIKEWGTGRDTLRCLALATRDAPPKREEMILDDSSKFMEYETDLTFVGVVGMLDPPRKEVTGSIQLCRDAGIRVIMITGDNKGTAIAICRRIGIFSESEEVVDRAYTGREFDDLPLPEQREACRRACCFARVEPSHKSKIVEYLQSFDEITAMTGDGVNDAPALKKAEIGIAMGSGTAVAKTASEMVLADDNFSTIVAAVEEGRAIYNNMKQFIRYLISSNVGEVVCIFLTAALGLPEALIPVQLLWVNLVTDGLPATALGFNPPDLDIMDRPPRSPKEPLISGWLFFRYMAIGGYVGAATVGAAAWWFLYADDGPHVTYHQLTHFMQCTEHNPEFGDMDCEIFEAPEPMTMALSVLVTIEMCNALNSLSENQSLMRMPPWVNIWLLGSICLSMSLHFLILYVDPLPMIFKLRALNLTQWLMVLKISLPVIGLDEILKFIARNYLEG
Protocol: as §1, §2, §3, §4, §5

[3] = molecular target: T3, PLB[1-36 a.a.] (36 amino acid N-terminal fragment of human phospholamban) (Homo sapiens, UniProt P26678); test: Circular dichroism (CD) spectroscopy, binding to cytosolic part of phospholamban; settings: FIG. 2
T3 construct: the pSer16/pThr17 doubly phosphorylated peptide was compared
T3 sequence (P26678 1-36): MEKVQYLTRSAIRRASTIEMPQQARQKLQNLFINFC
Protocol: (§6) Both the 36 amino acid N-terminal fragment of human phospholamban (PLB [1-36 a.a.]) and the 36 amino acid N-terminal fragment of double phosphorylated human phospholamban (PLB [1-36 a.a.](Ser16PO3 -, Thr17PO3 -)) were obtained by peptide synthesis. The peptides were purified by reverse phase HPLC, analysed for homogenity by mass spectrometry and were found pure at 97%. The peptides were lyophilized and then resuspended in water at the final concentration of 0.1 mM, for CD analysis. The pH of both solutions was between 3 and 4 and was not further adjusted. Compound of Example 1c was solved in water at a final concentration of 0.1 mM. The pH was adjusted at 7.2 by adding 1 N NaOH.
(§7) Circular dichroism spectra were acquired at 24° C. on samples of 100 μl. The spectra were recorded on a Jasco J-720 spectropolarimeter using a 1 mm path-length quartz cuvette. The band width was 1 nm, the sensitivity 20 mdeg, the step resolution 0.5 nm, the response time 0.5 sec, and the scan speed 20 nm/min (from 250 to 190 nm). The spectra were expressed in [θ]×10^-3 ×degrees×cm^2 ×dmol^-1.

[4] = tested on: PLB[1-36 a.a.](Ser16PO3-, Thr17PO3-); test: Circular dichroism (CD) spectroscopy, binding to double phosphorylated phospholamban fragment; set-up: species or system human; settings: double phosphorylated peptide; FIG. 2
Protocol: as §6, §7

[5] = tested on: isolated guinea-pig Langendorff heart; test: Development of stunned myocardium in isolated Langendorff heart (ischemia-reperfusion); settings: 10 μM in perfusion buffer; three 8 min global ischemia periods each followed by reperfusion; FIG. 3B
Protocol: Guinea-pigs of either sex weighing 300-400 g were used in the study. After the guinea-pig was sacrificed by a blow on the skull and decapitated the heart was rapidly excised. The heart was then rinsed in oxygenated perfusion buffer. A cannula was inserted into the aorta and secured with a ligature. Retrograde perfusion began as soon as the heart was placed in a thermostatically controlled moist chamber of the Langendorff apparatus. Modified Tyrode solution (37° C.), equilibrated in a thermostatically controlled bulb oxygenator with carbogen (95% O2 and 5% CO2) was used as a perfusion buffer. The composition of the Tyrode solution was (in mM): NaCl 135; MgCl2 ×6H2 O 1; KCl 5; CaCl2 ×2H2 O 2; NaHCO3 15; Na2 HPO4 ×2H2 O 1; glucose 10; pH 7.3-7.4. The experiments were carried out under constant pressure condition (50 mmHg). After a short prestabilization (10 min) a latex balloon attached through the stainless-steel cannula to a pressure transducer was carefully placed into the left ventricle through the left pulmonary vein and the left atrium. The latex balloon, the cannula and the chamber of the pressure transducer were filled with ethylene glycol/water (1:1) mixture avoiding any air-bubble. The isovolumetric left ventricular pressure was recorded through the pressure transducer. […]

[6] = 0.05 h, 0.1 μM free calcium, read-out: The stimulation (%) of Ca2+ uptake, A (ventricular myocardium vesicles)
[7] = 0.05 h, 0.04 μM free calcium, read-out: The stimulation (%) of Ca2+ uptake, B (fast skeletal muscle vesicles)

- activation at 100 µM [1, 6]: 42%
- activation at 100 µM [2, 7]: -6%
- Interaction with phosphorylated PLB[1-36 a.a.](Ser16PO3-, Thr17PO3-) by CD [4]: does not interact or interacts weakly
SMILES: Cc1c(Cc2ccccc2)c(=O)oc2cc(OCc3nnn[nH]3)cc(OCc3nnn[nH]3)c12 [Example 1c, 3-Benzyl-5,7-bis[(1H -tetrazol-5-yl)methoxy]-4-methyl-2H -1-benzopyran-2-one]
- Change in CD spectrum (α-helical contribution) of PLB[1-36 a.a.] after addition of compound ([3]; 50 μM each, water, room temperature): marked increase of α-helical contribution
- Interaction (complex formation) with PLB[1-36 a.a.] by CD ([3]; unphosphorylated peptide): forms a complex with PLB; also recorded: interacts with the cytosolic part of phospholamban

- activation at 100 µM [2, 7]: -1%
SMILES: O=c1oc2cc(OCc3nnn[nH]3)cc(OCc3nnn[nH]3)c2c2c1C(c1ccccc1)CCC2 (centres unmarked) [Example 2c, 7,8,9,10-Tetrahydro-1,3-bis[(1H -tetrazol-5-yl)methoxy]-7-phenyl-6H-dibenzo[b,d]pyran-6-one]

- activation at 20 µM ([2]; 0.05 h, compound 20 μM, 0.04 μM free calcium, read-out: The stimulation (%) of Ca2+ uptake, B (fast skeletal muscle vesicles)): 0%
SMILES: Cc1c(Cc2ccccc2)c(=O)oc2cc(OCc3noc(=O)[nH]3)cc(OCc3noc(=O)[nH]3)c12 [Example 3c, 3-Benzyl-5,7-bis[(2,5-dihydro-5-oxo-4H -1,2,4-oxadiazol-3-yl)-methoxy]-4-methyl-2H -1-benzopyran-2-one]

- activation at 100 µM [1, 6]: 5%
- activation at 100 µM [2, 7]: -17%
SMILES: Cc1c(CCc2ccccc2)c(=O)oc2cc(OCc3nnn[nH]3)cc(OCc3nnn[nH]3)c12 [Example 7c, 5,7-Bis[(1H-tetrazol-5-yl)methoxy]-4-methyl-3-(2-phenylethyl)-2H-1benzopyran-2-one]

- Effect on the Ca2+ uptake rate into the cardiac muscle SR vesicles ([1]; 0.1, 1.0 and 10 μM, FIG. 1): accelerated the calcium uptake
- Effect on the calcium uptake into the SR vesicle prepared from the fast skeletal muscle ([2]; 0.1-10 μM): did not change the calcium uptake
- activation at 10 µM ([2]; 0.05 h, compound 10 μM, 0.04 μM free calcium, read-out: The stimulation (%) of Ca2+ uptake, B (fast skeletal muscle vesicles)): 0%
SMILES: Cc1c(Cc2ccccc2)c(=O)n(Cc2ccccc2)c2cc(OCc3nnn[nH]3)cc(OCc3nnn[nH]3)c12 [Example 8g, 5,7-Bis[(1H-tetrazol-5-yl)methoxy]-1,3-dibenzyl-4-methyl-2(1H)-quinolinone]
- Development of stunned myocardium (left ventricular systolic pressure) [5]: complete inhibition of the development of stunned myocardium; also recorded: completely inhibited the development of stunned myocardium

- activation at 5 µM ([1]; 0.05 h, compound 5 μM, 0.1 μM free calcium, read-out: The stimulation (%) of Ca2+ uptake, A (ventricular myocardium vesicles)): 20%
SMILES: Cc1c(Cc2ccccc2)c(=O)n(Cc2ccccc2)c2cc(OCC(=O)NO)cc(OCC(=O)NO)c12 [Example 23, 5,7-Bis(hydroxyaminocarbonylmethoxy)-1,3-dibenzyl-4-methyl-2(1H)-quinolinone]
